Measured values taken from PMC6535779, “A Specific, Glycomimetic Langerin Ligand for Human Langerhans Cell Targeting” (ACS Central Science, 2019).

Columns and labels:
Langerin CRD = target: T1, Langerin CRD (Homo sapiens, UniProt Q9UJ71); parameters: method as in PMID 27458873; details: previously published value; cited from earlier work
T1 construct: Experiments with the Langerin CRD were performed at; made in house

DC-SIGN CRD = target: T2, DC-SIGN CRD (Homo sapiens, UniProt Q9NNX6); assay: 19F R2-filtered NMR reporter displacement assay with DC-SIGN; type: binding
T2 construct: with the DC-SIGN CRD were performed at a receptor concentration of 50 μM; made in house
T2 sequence (Q9NNX6 263-378 limits assumed): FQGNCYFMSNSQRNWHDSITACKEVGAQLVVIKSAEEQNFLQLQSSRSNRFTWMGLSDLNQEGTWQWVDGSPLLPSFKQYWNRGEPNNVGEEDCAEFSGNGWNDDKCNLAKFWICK
Description: Figure S7. 19F R2-filtered NMR assay development with DC-SIGN. […]
substantial line broadeni ng. This phenomenon was utilized to develop the 19F R2-filtered NMR reporter displacement assay following the procedure previously published for Langerin 3. The spectrum in absence of DC -SIGN is processed with an exponential apodization function at 1.8 Hz. b. The interaction between 24 and DC-SIGN was quantified via the transversal relaxation rate R2,obs using the CPMG pulse sequence4-5. Representative decay curves in the presence of DC-SIGN are shown. c. The Ca2+-dependency of the interaction was validated via addition of EDTA. The R2,obs value in absence of DC-SIGN was determined from four independent experiments. The standard error for the experiments in presence of DC-SIGN and EDTA is derived directly from the fitting procedure. d. Relaxation dispersion experiments for 24 in presence of DC-SIGN indicate at negligible exchange contribution R2,ex at a νCPMG value of 500 Hz. In contrast to Langerin, a considerable exchange contribution is observed a lower νCPMG values. e. A representative binding isotherm for the affinity determination for 24 is shown. The KD value was determined from three independent titrations. The obtained K D and additional parameters from the fitting procedure are given in Tab le S3.
(1 picture or pasted object on this page, not shown here)
(§1) Receptor Expression and Purification
General remarks. Codon-optimized genes for the expression of Langerin and DC-SIGN in E. coli were purchased from GenScript and Life Technologies, respectively. All growth media or chemicals used for receptor expression and purification were purchased from Carl Roth if not stated otherwise. […]
Langerin and DC-SIGN carbohydrate recognition domain. Expression and purification were conducted as previously published14. Briefly, the monomeric 15N-labeled Langerin and DC-SIGN carbohydrate recognition domains (CRDs) were expressed insolubly in E. coli BL21* (DE3) (Invitrogen). Following enzymatic cell lysis, inclusion bodies were harvested and subsequently solubilized. The sample was centrifuged and the Langerin and DC-SIGN CRDs were refolded overnight via rapid dilution. Next, the sample was dialyzed overnight, centrifuged and purified via StrepTactin affinity chromatography (Iba). After an additional dialysis step overnight, the sample was centrifuged and the buffer was exchanged to 25 mM HEPES with 150 mM NaCl at pH 7.0 using 7 kDa size-exclusion desalting columns (Thermo Scientific) for 19F R2-filtered and 15N HSQC NMR experiments. The concentration of Langerin and DC -SIGN CRDs was determined via UV spectroscopy (A280, 0.1% = 3.19 and A280, 0.1% = 2.98). Purity and monodispersity of Langerin and DC - SIGN CRD samples were analyzed via SDS PAGE and DLS.
(§2) General remarks. 19F R2-filtered NMR experiments were conducted on a PremiumCompact 600 MHz spectrometer (Agilent). Spectra were processed in MestReNova and data analysis was performed with OriginPro 13, 15. Experiments with the Langerin ECD were performed at a receptor concentration of 50 μM in 25 mM Tris with 10% D2O, 150 mM NaCl and 5 mM CaCl2 at pH 7.8 and 25° C. Experiments […]
with the DC-SIGN CRD were performed at a receptor concentration of 50 μM in 25 mM HEPES with 10% D2O, 150 mM NaCl and 5 mM CaCl2 at pH 7.0 and 25°C. TFA served as an internal reference at a concentration of 50 μM. Apparent relaxation rates R2,obs for the reporter ligand were determined using the CPMG pulse sequence as previously published3-5.
Assay development for DC-SIGN. The 19F R2-filtered NMR reporter displacement assay for DC-SIGN was developed following the procedure previously published for Langerin3. Briefly, the KD value and the relaxation rate in bound state R2,b were determined at five concentrations [L]T of reporter ligand 24 in three independent titration experiments. Samples were prepared via serial dilution. The addition of 10 mM EDTA served to validate the Ca2+-dependency of the interaction between DC-SIGN and the reporter ligand. […]

[1] = target: T3, Langerin extracellular domain (ECD) (Homo sapiens, UniProt Q9UJ71); assay: 19F R2-filtered NMR reporter displacement assay with Langerin; type: binding; details: calculated utilizing the KI value determined for 21
T3 construct: the trimeric Langerin extracellular domain (ECD) was expressed insolubly in E; made in house
Procedure: as §1
General remarks. Codon-optimized genes for the expression of Langerin and DC-SIGN in E. coli were purchased from GenScript and Life Technologies, respectively. All growth media or chemicals used for receptor expression and purification were purchased from Carl Roth if not stated otherwise.
Langerin extracellular domain. Expression and purification were conducted as previously published14. Briefly, the trimeric Langerin extracellular domain (ECD) was expressed insolubly in E. coli BL21* (DE3) (Invitrogen). Following enzymatic cell lysis, inclusion bodies were harvested and subsequently solubilized. The sample was centrifuged and the Langerin ECD was refolded overnight via rapid dilution. Next, the sample was dialyzed overnight, centrifuged and purified via mannan-agarose affinity chromatography (Sigma Aldrich). For 19F R2-filtered NMR and lipid-enzyme-linked lectin assay (Lipid-ELLA) experiments, the buffer was exchanged to 25 mM Tris with 150 mM NaCl and 5 mM CaCl2 at pH 7.8 using 7 kDa size-exclusion desalting columns (Thermo Scientific). For […]
D2O, 150 mM NaCl and 5 mM CaCl2 at pH 7. The concentration of Langerin ECD was determined via UV spectroscopy (A280, 0.1% = 2.45). Purity and monodispersity of Langerin ECD samples were analyzed via SDS PAGE and DLS. […]
as §2, with “C.” for “C. Experiments”
10% D2O, 150 mM NaCl and 5 mM CaCl2 at pH 7.0 and 25°C. TFA served as an internal reference at a concentration of 50 μM. Apparent relaxation rates R2,obs for the reporter ligand were determined using the CPMG pulse sequence as previously published3-5. […]
KI determination. KI values were determined as previously published for Langerin3. Briefly, titration experiments were conducted at a concentration of 0.1 mM of reporter ligand 24 at five competitor concentrations [I]T. Samples were prepared via serial dilution. For the acids GlcNS, GlcNAc-6-OS and GlcNS-6-OS the pH values were monitored and adjusted to 7.8 if necessary.
General remarks. 15N HSQC NMR experiments were conducted on an Ascend 700 MHz spectrometer (Bruker)16. Spectra were processed in NMRPipe17. Data analysis was performed using CCPN Analysis, MatLab and OriginPro15, 18-19. Experiments with the Langerin CRD were performed at a receptor concentration of 100 μM in 25 mM HEPES with 10% D 2O, 150 mM NaCl and 5 mM CaCl2 at pH 7.8 and 25° C. DSS-d6 served as an internal reference at a concentration of 100 μM. Spectra were referenced via the internal spectrometer reference. Spectra were acquired with 128 increments and 32 scans per increments for 150 μl samples in 3 mm sample tubes. The relaxation delay d1 was set to 1.4 s and the acquisition time tacq was set to 100 ms. The W5 Watergate pulse sequence was used for solvent suppression20. The used resonance assignment for the Langerin CRD has been published […]
KD determination. KD values were determined in titration experiments at six ligand concentrations [L]T. Samples were prepared via serial dilution. Chemical shift perturbations CSPs for Langerin CRD resonances in the fast or fast-to-intermediate exchange regime observed upon titration with ligand were calculated via Equation 121.

[2] = target: T3, Langerin extracellular domain (ECD); parameters: method as in PMID 27458873; details: 19F R2-filtered NMR; previously published value; cited from earlier work

T3 sequence (Q9UJ71 65-328 limits assumed): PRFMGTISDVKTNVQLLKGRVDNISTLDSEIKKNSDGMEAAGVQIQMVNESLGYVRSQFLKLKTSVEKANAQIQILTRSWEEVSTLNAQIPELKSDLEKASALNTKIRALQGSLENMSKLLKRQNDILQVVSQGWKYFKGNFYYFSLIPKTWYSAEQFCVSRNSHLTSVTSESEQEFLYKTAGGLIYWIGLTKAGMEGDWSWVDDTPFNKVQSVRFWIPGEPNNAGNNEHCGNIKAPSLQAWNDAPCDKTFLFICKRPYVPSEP
T1 sequence (Q9UJ71 202-320 limits assumed): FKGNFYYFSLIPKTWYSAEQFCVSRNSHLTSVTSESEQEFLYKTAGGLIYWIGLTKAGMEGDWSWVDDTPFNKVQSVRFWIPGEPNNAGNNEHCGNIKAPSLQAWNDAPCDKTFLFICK

- Ki (DC-SIGN CRD; 19F R2-filtered NMR, DC-SIGN CRD, pH 7.0, 25 °C): 3 ± 0.3 mM
- specificity (DC-SIGN CRD; Table 1, Langerin against DC-SIGN, from KI values): 0.67
- Relative potency, Langerin [1]: 2.2
Compound: OC[C@H]1OC(O)[C@@H](O)[C@@H](O)[C@@H]1O (some centres unmarked) [Man, mannose]
- Kd (Langerin CRD): 6.5 ± 0.2 mM
- Ki [2]: 4.5 ± 0.5 mM
